{"source": "patent US9376364B2", "about": "“Acid/salt separation” (PURAC BIOCHEM B.V., priority 2011, dated 2016)", "origin": "cited, not measured here", "conditions": "at 20 Celsius"}
{"smiles": "[Cl-].[Cl-].[Mg+2]", "note": "[MgCl2, magnesium chloride]", "values": [{"measurement": "saturation point of MgCl2 in water", "value": 55, "unit": "g/100 g water"}]}
